Source: article PMC12192727, “Strategies to Develop Na,K-ATPase-α4 Inhibitors as Male Contraceptives” (International Journal of Molecular Sciences, 2025)
pIC50: −log10 of the molar value. Read-outs that look alike come from different tables or passages of the source.

Assays:
[1] = target: T1, NKAα4 (Rattus norvegicus, UniProt Q64541); assay: Na,K-ATPase activity assay, α4β1 expressed in Sf9 insect cells; assay type: biochemical
T1 construct: made in house; host or cells: Sf9 insect cells (baculovirus infection), cell homogenates
Description: (§1) The NKA α1 and α4 isoforms were expressed in Sf9 insect cells as previously described. Briefly, cells were cultured in suspension at 27 °C in Grace’s medium (JRH Biosciences, Lenexa, KS, USA) with 3.3 g/L of lactalbumin hydrolysate and 3.3 g/L of yeastolate and supplemented with 10% (v/v) fetal bovine serum, 100 units/mL of penicillin, 100 μg/mL of streptomycin, and 0.25 μg/mL of fungizone. For infections, cells were placed on 150 mm Petri dishes and infected with baculoviruses coding for the NKA α1β1 and α4β1 isozymes. Three days after infection, cells were scraped from the culture plates, centrifuged at 1500× g for 10 min, and washed twice in 10 mM imidazole hydrochloride (pH 7.5) and 1 mM EGTA (suspension buffer). Cells were then placed in a suspension buffer plus the addition of 0.32 M sucrose and stored at −20 °C or directly used for assays.
The Na,K-ATPase activity of insect cell homogenates was determined by measuring the initial rate of release of ^32Pi from γ[^32P]-ATP as described. The incubation medium (0.25 mL final volume) contained 120 mM NaCl, 30 mM KCl, 3 mM MgCl2, 0.2 mM EGTA, 30 mM Tris-HCl (pH 7.4), and different concentrations of the corresponding compounds. The assay was started by the addition of ATP with 0.2 μCi γ[^32P]-ATP (2 mM final concentration). After 30 min of incubation at 37 °C, the reaction was stopped with trichloroacetic acid, and 5% ammonium molybdate in 4 N H2SO4 was used to complex the ^32Pi released in the Na,K-ATPase reaction. The phosphomolybdate was extracted with isobutanol as described, and 170 μL of the organic phase was taken and subjected to liquid scintillation counting. Enzymatic activity was determined as the difference in ATP hydrolysis in the absence and presence of 1 mM ouabain.
Figure 6 Selectivity of 13 and 45 on NKAα4 over the NKAα1 isoform. […] The hydrolysis of ATP in the presence of saturating concentrations of Na^+, K^+, and Mg^2+ was measured using γ[^32P]-ATP. The curves represent the best fit of the experimental data to a single population of binding sites. Each value is the mean ± SEM of three independent experiments.

[2] = system: mouse sperm; assay: Sperm viability (Live/Dead assay); assay type: cell-based; details: 10 µM, one hour
Description: To assess whether 13 and 45 affected sperm viability, we treated mouse sperm with the compounds for one hour at 10 µM and determined the number of live and dead cells in the sample.
Figure 5 Cell viability after treatment with compounds 13 and 45. Mouse caudal epididymal sperm was subjected to a medium not supporting capacitation to 10 µM of 13 and 45. After one hour, sperm was subjected to the Live/Dead assay as per the manufacturer’s recommendations. Cells were counted as viable/non-viable and expressed as the mean ± SEM of three determinations.

[3] = MDCK cell permeability; details: dog, MDCK
[4] = system: MDCK cells; assay: MDCK cell permeability; details: MDCK cell line, 0.5% BSA
[5] = target: T2, NKAα1 (Rattus norvegicus, UniProt P06685); assay: Na,K-ATPase activity assay, α1β1 expressed in Sf9 insect cells; assay type: biochemical; details: read-out: NKA Isoform Specificity (IC50 M) NKAα1
T2 construct: made in house; host or cells: Sf9 insect cells (baculovirus infection), cell homogenates
Description: as §1
The Na,K-ATPase activity of insect cell homogenates was determined by measuring the initial rate of release of ^32Pi from γ[^32P]-ATP as described. […] Enzymatic activity was determined as the difference in ATP hydrolysis in the absence and presence of 1 mM ouabain.
Figure 6 Selectivity of 13 and 45 on NKAα4 over the NKAα1 isoform. […] The hydrolysis of ATP in the presence of saturating concentrations of Na^+, K^+, and Mg^2+ was measured using γ[^32P]-ATP. […]

[6] = Metabolic stability in rat hepatocytes; assay type: in vitro ADME; details: rat hepatocytes
Description: (§2) The in vitro metabolic half-life (t1/2) is calculated using the slope of the log−linear regression from the percentage of the parent compound remaining versus the time relationship (κ). The experimental details are reported in the Supporting Information (Tables S6 and S7).

[7] = system: rat hepatocytes; assay: Metabolic stability in rat hepatocytes; assay type: in vitro ADME
Description: as §2

[8] = α4β1 in Sf9 insect cells, ± SEM of three experiments

T1 sequence (Q64541 whole entry, other chains not shown): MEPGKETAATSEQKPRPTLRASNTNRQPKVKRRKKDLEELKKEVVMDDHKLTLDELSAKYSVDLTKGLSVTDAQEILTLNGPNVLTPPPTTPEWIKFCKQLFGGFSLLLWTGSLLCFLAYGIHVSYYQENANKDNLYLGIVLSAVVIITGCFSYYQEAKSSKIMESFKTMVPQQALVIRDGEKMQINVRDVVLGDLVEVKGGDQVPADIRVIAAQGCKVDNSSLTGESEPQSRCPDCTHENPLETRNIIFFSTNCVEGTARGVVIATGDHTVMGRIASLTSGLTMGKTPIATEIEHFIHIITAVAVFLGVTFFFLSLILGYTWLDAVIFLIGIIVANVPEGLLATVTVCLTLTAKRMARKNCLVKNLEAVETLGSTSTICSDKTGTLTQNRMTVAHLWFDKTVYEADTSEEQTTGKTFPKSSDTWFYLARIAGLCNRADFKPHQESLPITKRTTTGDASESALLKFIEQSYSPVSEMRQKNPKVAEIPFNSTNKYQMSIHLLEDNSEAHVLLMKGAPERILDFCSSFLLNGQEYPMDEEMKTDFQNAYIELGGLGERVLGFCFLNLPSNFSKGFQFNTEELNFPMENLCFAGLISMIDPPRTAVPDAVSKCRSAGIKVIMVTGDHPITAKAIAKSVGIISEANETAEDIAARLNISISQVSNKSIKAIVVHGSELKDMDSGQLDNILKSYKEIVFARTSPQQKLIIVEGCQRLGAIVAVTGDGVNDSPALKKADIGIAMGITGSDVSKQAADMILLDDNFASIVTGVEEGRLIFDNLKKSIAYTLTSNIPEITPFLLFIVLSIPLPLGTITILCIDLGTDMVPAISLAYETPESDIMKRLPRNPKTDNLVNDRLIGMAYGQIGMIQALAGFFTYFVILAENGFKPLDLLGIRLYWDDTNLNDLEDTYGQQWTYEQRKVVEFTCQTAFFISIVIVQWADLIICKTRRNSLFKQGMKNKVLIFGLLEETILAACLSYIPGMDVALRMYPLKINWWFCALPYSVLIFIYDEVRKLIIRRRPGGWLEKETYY

C[C@]12CC[C@H]3[C@@H](CC=C4C[C@@H](O)CC[C@@]43C)[C@@H]1CC[C@@H]2c1cn(Cc2ccccc2)nn1 [Compound 13, (3S,8S,9S,10R,13S,14S,17S)-17-(1-Benzyl-1H-1,2,3-triazol-4-yl)-10,13-dimethyl-2,3,4,7,8,9,10,11,12,13,14,15,16,17-tetradecahydro-1H-cyclopenta[a]phenanthren-3-ol]
pIC50 [1]: 10.00
NKA Isoform Specificity (IC50 M) NKAα4 [1, 8]: nanomolar range
Sperm viability [2]: the same as that of the untreated controls
Papp B→A [3]: 0.78 ×10⁻⁶ cm/s
efflux ratio [3]: 1.24
Papp A→B ([3]; Papp (A-B), MDCK cells, BSA 0% for controls, 0.5% for 13): 0.63 ×10⁻⁶ cm/s
Papp A→B ([3]; Permeability Papp (A-B), MDCK cell line, 0.5% BSA): 0.6 ×10⁻⁶ cm/s
Permeability Papp (A-B) [4]: poor
pIC50 [5]: < 4.00

CC12CCC(=O)C=C1CCCC2n1cc(-c2ccccc2)nn1 (stereo not shown) [Compound 45, 4a-Methyl-5-(4-phenyl-1H-1,2,3-triazol-1-yl)-4,4a,5,6,7,8-hexahydronaphthalen-2(3H)-one]
NKA Isoform Specificity (IC50 M) NKAα4 [1, 8]: nanomolar range
pIC50 ([1]; α4β1 in Sf9 insect cells, ± SEM of three experiments, read-out: NKA Isoform Specificity (IC50 M) NKAα4): 8.57
Sperm viability [2]: the same as that of the untreated controls
hepatocyte CLint at 1 μM ([6]; read-out: In vitro Clint): 72.2 µL/min/1e6 cells
half-life at 1 µM ([6]; rat, hepatocytes, read-out: In vitro T1/2): 19.2 min
CLint scaled at 1 µM ([6]; rat, hepatocytes, read-out: Scale-up Clint): 338 mL/min/kg
Remaining Percentage (%) ([7]; rat boiled hepatocytes, 0 min): 100.00%
Remaining Percentage (%) ([7]; rat boiled hepatocytes, 15 min): 101.65%
Remaining Percentage (%) ([7]; rat boiled hepatocytes, 30 min): 104.87%
Remaining Percentage (%) ([7]; rat boiled hepatocytes, 60 min): 104.47%
Remaining Percentage (%) ([7]; rat boiled hepatocytes, 90 min): 104.04%
Remaining Percentage (%) ([7]; rat boiled hepatocytes, 120 min): 104.50%
Hepatic Extraction Ratio (E) ([7]; rat hepatocytes): 0.86
Predicted hepatic CL ([7]; rat hepatocytes): 47.44 mL/min/kg
Remaining Percentage (%) ([7]; rat hepatocytes, 0 min): 100.00%
Remaining Percentage (%) ([7]; rat hepatocytes, 15 min): 51.55%
Remaining Percentage (%) ([7]; rat hepatocytes, 30 min): 26.35%
Remaining Percentage (%) ([7]; rat hepatocytes, 60 min): 9.77%
Remaining Percentage (%) ([7]; rat hepatocytes, 90 min): 3.36%
Remaining Percentage (%) ([7]; rat hepatocytes, 120 min): 1.25%
Metabolic Stability in Hepatocytes (60 min), compound remaining ([7]; rat, 60 min): 10%
pIC50 [5]: < 4.00
